Values of other authors in patent US20080081067A1, “SUSTAINED RELEASE PHARMACEUTICAL COMPOSITIONS OF VENLAFAXINE AND PROCESS FOR PREPARATION THEREOF” (priority 2006, published 2008).

Tested on: monoamine oxidase
Details: background statement

## COc1ccc(C(CN(C)C)C2(O)CCCCC2)cc1 (stereo not shown) [Venlafaxine]
  inhibitory activity on monoamine oxidase: no inhibitory activity
